According to patent US20240002375A1, “2-(INDAZOL-5-YL)-6-(PIPERIDIN-4-YL)-1,7-NAPHTHYRIDINE DERIVATIVES AND RELATED COMPOUNDS AS MODULATORS FOR SPLICING NUCLEIC ACIDS AND FOR THE TRE” (REMIX THERAPEUTICS INC., priority 2020, published 2024):

Columns and labels:
Type in all cases: cell-based
HTT mRNA = experiment: Splicing assay (RT-qPCR) of HTT mRNA alternative junction (AJ) and canonical junction (CJ); conditions: A673 or K562 cells, 24 hours; for IC50: decrease in CJ mRNA, read-out: HTT CJ IC50; for AC50: increase in AJ mRNA, read-out: HTT AJ AC50
Protocol: Compounds described herein were used to modulate RNA transcript abundance in cells. The expression of a target mRNA was measured by detecting the formation of an exon-exon junction in the canonical transcript (CJ). A compound mediated exon-inclusion event was detected by observing an increase in formation of a new junction with an alternative exon (AJ). Real-time qPCR assays were used to detect these splicing switches and interrogate the potency of various compounds towards different target genes. A high-throughput real time quantitative PCR (RT-qPCR) assay was developed to measure these two isoforms of the mRNA (CJ and AJ) for an exemplary gene, HTT, together with a control housekeeping gene, GAPDH or GUSB or PPIA, used for normalization. Briefly, the A673 or K562 cell line was treated with various compounds described herein (e.g., compounds of Formula (I) or (II)). After treatment, the levels of the HTT mRNA targets were determined from each sample of cell lysate by cDNA synthesis followed by qPCR.
Materials: • Cells-to-CT 1-step kit: ThermoFisher A25602, Cells-to-CT lysis reagent: ThermoFisher 4391851C, TagMan™ Fast Virus 1-Step Master Mix: ThermoFisher 4444436 • GAPDH: VIC-PL, ThermoFisher 4326317E (Assay: Hs99999905_ml)—used for K562/suspension cell lines • GUSB: VIC-PL, ThermoFisher 4326320E (Assay: Hs99999908 ml)—used for K562/suspension cell lines • PPIA: VIC-PL, ThermoFisher 4326316E (Assay: Hs99999904 ml)—used for A673/adherent cell lines
The A673 cell line was cultured in DMEM with 10% FBS. Cells were diluted with full growth media and plated in a 96-well plate (15,000 cells in 100 ul media per well). The plate was incubated at 37° C. with 5% CO2 for 24 hours to allow cells to adhere. An 11-point 3-fold serial dilution of the compounds was made in DMSO then diluted in media in an intermediate plate. Compounds were transferred from the intermediate plate to the cell plate with the top dose at a final concentration of 10 uM in the well. Final DMSO concentration was kept at or below 0.25%. The cell plate was returned to the incubator at 37° C. with 5% CO2 for an additional 24 hours.
The K562 cell line was cultured in IMDM with 10% FBS. For K562, cells were diluted with full growth media and plated in either a 96-well plate (50,000 cells in 50 uL media per well) or a 384-well plate (8,000-40,000 cells in 45 uL media per well). An 11-point 3-fold serial dilution of the compounds were made in DMSO then diluted in media in an intermediate plate. Compound was transferred from the intermediate plate to the cell plate with the top dose at a final concentration of 10 uM in the well. Final DMSO concentration was kept at or below 0.25%. Final volume was 100 uL for 96-well plate and 50 uL for 384-well plate. The cell plate was then placed in an incubator at 37° C. with 5% CO2 for 24 hours.
The cells were then gently washed with 50 uL-100 uL cold PBS before proceeding to addition of lysis buffer. 30 uL-50 uL of room temperature lysis buffer with DNAse I (and optionally RNAsin) was added to each well. Cells were shaken/mixed thoroughly at room temperature for 5-10 minutes for lysis to take place and then 3 uL-5 uL of room temperature stop solution was added and wells were shaken/mixed again. After 2-5 minutes, the cell lysate plate was transferred to ice for RT-qPCR reaction setup. The lysates could also be frozen at −80° C. for later use.
In some cases, a direct lysis buffer was used. An appropriate volume of 3X lysis buffer (10 mM Tris, 150 mM NaCl, 1.5%-2.5% Igepal and 0.1-1 U/uL RNAsin, pH 7.4) was directly added to either K562 or A673 cells in media and mixed by pipetting 3 times. The plates were then incubated at room temperature with shaking/rocking for 20-50 minutes to allow for lysis to take place. After this time, the cell lysate plate was transferred to ice to set up for the RT-qPCR reactions. The lysates could also be frozen at −80° C. for later use. […]

HTT CJ mRNA = experiment: Gene panel canonical junction qPCR splicing assay, HTT; conditions: Table 4, read-out: HTT IC50 (decrease in CJ mRNA levels)
Protocol: (§1) Compounds described herein were used to modulate RNA transcript abundance in cells. The expression of a target mRNA was measured by detecting the formation of an exon-exon junction in the canonical transcript (CJ). A compound mediated exon-inclusion event was detected by observing an increase in formation of a new junction with an alternative exon (AJ). Real-time qPCR assays were used to detect these splicing switches and interrogate the potency of various compounds towards different target genes. A high-throughput real time quantitative PCR (RT-qPCR) assay was developed to measure these two isoforms of the mRNA (CJ and AJ) for an exemplary gene, HTT, together with a control housekeeping gene, GAPDH or GUSB or PPIA, used for normalization. Briefly, the A673 or K562 cell line was treated with various compounds described herein (e.g., compounds of Formula (I) or (II)). After treatment, the levels of the HTT mRNA targets were determined from each sample of cell lysate by cDNA synthesis followed by qPCR. The data analysis was performed by first determining the ΔCt vs the housekeeper gene. This ΔCt was then normalized against the DMSO control (ΔΔCt) and converted to RQ (relative quantification) using the 2^(−ΔΔCt) equation. The RQ were then converted to a percentage response by arbitrarily setting an assay window of 3.5 ΔCt for HTT-CJ and an assay window of 9 ΔCt for HTT-AJ. […] The percentage response was then fitted to the 4 parametric logistic equation to evaluate the concentration dependence of compound treatment. The increase in AJ mRNA is reported as AC50 (compound concentration having 50% response in AJ increase) while the decrease in CJ mRNA levels is reported as IC50 (compound concentration having 50% response in CJ decrease). Additional studies were carried out for a larger panel of genes using the protocol provided above. The junction between flanking upstream and downstream exons was used to design canonical junction qPCR assays. At least one of the forward primer, reverse primer or the CY5-labeled 5′ nuclease probe (with 3′ quencher such as ZEN/Iowa Black FQ) was designed to overlap with the exon junction to capture the CJ mRNA transcript. BLAST was used to confirm the specificity of the probeset and parameters such as melting temperature, GC content, amplicon size, and primer dimer formation are considered during their design. Data for the decrease in CJ mRNA levels for three exemplary genes (HTT, SMN2, and Target C) analyzed in this panel are reported as IC50 (compound concentration having 50% response in CJ decrease).

SMN2 CJ mRNA = experiment: Gene panel canonical junction qPCR splicing assay, SMN2; conditions: Table 4, read-out: SMN2 IC50 (decrease in CJ mRNA levels)
Protocol: as §1

Target C CJ mRNA = experiment: Gene panel canonical junction qPCR splicing assay, Target C; conditions: Table 4, read-out: Target C IC50 (decrease in CJ mRNA levels)
Protocol: as §1

| Structure (SMILES) | IC50 (HTT mRNA) [nM] | IC50 (HTT CJ mRNA) [nM] | IC50 (SMN2 CJ mRNA) [nM] | IC50 (Target C CJ mRNA) [nM] | AC50 (HTT mRNA) [nM] |
| --- | --- | --- | --- | --- | --- |
| C[C@H]1C[C@H](c2ccc3nc(-c4cc5cn(C)nc5cc4O)ccc3n2)CCN1 (relative stereo) [Compound 139, 2-methyl-5-[6-[(2S,4R)-2-methylpiperidin-4-yl]-1,5-naphthyridin-2-yl]indazol-6-ol] | < 100 | < 100 | < 100 | 100 to 1000 | < 100 |
| C[C@H]1C[C@@H](c2ccc3nc(-c4cc5cn(C)nc5cc4O)ccc3n2)CCN1 (relative stereo) [Compound 140, 2-methyl-5-[6-[(2S,4S)-2-methylpiperidin-4-yl]-1,5-naphthyridin-2-yl]indazol-6-ol] | < 100 | < 100 | < 100 | 100 to 1000 | 100 to 1000 |
| Cc1nc2cc(O)c(-c3ccc4nc(N5CC[C@H](NC6CC6)C5)ccc4n3)cc2o1 (single isomer, unassigned) [Compound 211, 6-{6-[3-(cyclopropylamino)pyrrolidin-1-yl]-1,5-naphthyridin-2-yl}-2-methyl-1,3-benzoxazol-5-ol] | < 100 | < 100 | < 100 | 100 to 1000 | < 100 |
| Cc1nc2cc(O)c(-c3ccc4nc(N5CC[C@@H](NC6CC6)C5)ccc4n3)cc2o1 (single isomer, unassigned) [Compound 212, 6-{6-[3-(cyclopropylamino)pyrrolidin-1-yl]-1,5-naphthyridin-2-yl}-2-methyl-1,3-benzoxazol-5-ol] | < 100 | < 100 | < 100 | 100 to 1000 | < 100 |
| Cc1nc2c(C)c(O)c(-c3ccc4nc(N5CCC(NC(C)(C)C)C5)ccc4n3)cc2o1 (single isomer, unassigned) [Compound 214, 6-{6-[3-(tert-butylamino)pyrrolidin-1-yl]-1,5-naphthyridin-2-yl}-2,4-dimethyl-1,3-benzoxazol-5-ol] | < 100 | < 100 | < 100 | < 100 | < 100 |
| CN1CCC12CCN(c1ccc3nc(-c4cc5cn(C)nc5cc4O)ccc3n1)C2 (centres unmarked) [Compound 181, 2-methyl-5-(6-{1-methyl-1,6-diazaspiro[3.4]octan-6-yl}-1,5-naphthyridin-2-yl) indazol-6-ol] | 100 to 1000 |  |  |  |  |
| Cn1cc2cc(-c3ccc4nc(N5CCC(NC(C)(C)C)C5)ccc4n3)c(F)cc2n1 (centres unmarked) [Compound 183] | > 10000 |  |  |  |  |

Further lines, with some results ahead:

| IC50 (HTT mRNA) [nM] | IC50 (HTT CJ mRNA) [nM] | IC50 (SMN2 CJ mRNA) [nM] | IC50 (Target C CJ mRNA) [nM] | Structure (SMILES) | AC50 (HTT mRNA) [nM] |
| --- | --- | --- | --- | --- | --- |
| < 100 | < 100 | < 100 | < 100 | Cc1c(O)c(-c2ccc3nc(N4CCC(NC5(C)CC5)C4)ccc3n2)cc2cn(C)nc12 (racemic) [Compound 224, 2,7-dimethyl-5-(6-{3-[(1-methylcyclopropyl)amino]pyrrolidin-1-yl}-1,5-naphthyridin-2-yl) indazol-6-ol] | < 100 |
| < 100 | < 100 | < 100 | < 100 | Cc1nc2c(C)c(O)c(-c3ccc4nc(N5CC[C@@H](NC(C)(C)C)C5)ccc4n3)cc2o1 (single isomer, unassigned) [Compound 215, 6-{6-[3-(tert-butylamino)pyrrolidin-1-yl]-1,5-naphthyridin-2-yl}-2,4-dimethyl-1,3-benzoxazol-5-ol] | < 100 |
| < 100 | < 100 | < 100 | < 100 | Cc1nc2c(C)c(O)c(-c3ccc4nc(N5CCC(NC6CC6)C5)ccc4n3)cc2o1 (single isomer, unassigned) [Compound 216, 6-{6-[3-(cyclopropylamino)pyrrolidin-1-yl]-1,5-naphthyridin-2-yl}-2,4-dimethyl-1,3-benzoxazol-5-ol] | < 100 |
| < 100 | < 100 | < 100 | < 100 | Cc1nc2c(C)c(O)c(-c3ccc4nc(N5CCC(NC6CC6)C5)ccc4n3)cc2o1 (single isomer, unassigned) [Compound 217, 6-{6-[3-(cyclopropylamino)pyrrolidin-1-yl]-1,5-naphthyridin-2-yl}-2,4-dimethyl-1,3-benzoxazol-5-ol] | < 100 |
| < 100 | < 100 | < 100 | < 100 | Cn1cc2cc(-c3ccc4nc(N5CC[C@@H](NC6(C)CC6)C5)ccc4n3)c(O)cc2n1 (single isomer, unassigned) [Compound 220] | < 100 |
| < 100 | < 100 | < 100 | < 100 | Cn1cc2cc(-c3ccc4nc(N5CC[C@H](NC6(C)CC6)C5)ccc4n3)c(O)cc2n1 (single isomer, unassigned) [Compound 221, 2-methyl-5-{6-[(35)-3-[(1-methylcyclopropyl)amino]pyrrolidin-1-yl]-1,5-naphthyridin-2-yl}indazol-6-ol] | < 100 |
| < 100 | < 100 | < 100 | < 100 | Cn1cc2cc(-c3ccc4nc(N5CC[C@H](NC6(C)CC6)C5)ccc4n3)c(O)c(F)c2n1 (single isomer, unassigned) [Compound 222, 7-fluoro-2-methyl-5-{6-[(3 S)-3-[(1-methylcyclopropyl)amino]pyrrolidin-1-yl]-1,5-naphthyridin-2-yl}indazol-6-ol] | < 100 |
